In patent US20250296938A1, “Compounds that Interact with the Ras Superfamily for the Treatment of Cancers, Inflammatory Diseases, Rasopathies, and Fibrotic Disease” (SHY Therapeutics, LLC, priority 2018, published 2025):
Read-outs that look alike come from different tables or passages of the source.

How the values were obtained:
Assay in all cases: Ras GTP binding domain inhibition assay (Cy3-GTP/Cy5-GTP competition)
KRas Q61H mutant = tested on: KRas Q61H mutant; design: species or system human; conditions: 20 μM; for KRas Q61H mutant + SOS: % inh.: with SOS; for KRas Q61H mutant: % inh.: without SOS
Description: (§1) The following method was developed as specific assay for the following proteins: KRas wild type, KRas Q61H mutant, KRas G12C mutant, KRas G12D mutant, HRas wild type, Rac-1, and Rho-A.
(§2) • 25 mM Tris-HCl, pH 7.4 • 27 mM KCl • 137 mM NaCl • 1 mM MgCl2 • 1 mM DTT
(§3) • 50 mM Tris-HCl, pH 7.0 • 1 mM MgCl2 • 1 mM DTT
(§4) The small GTPases proteins: KRas wild type. KRas Q61H mutant, KRas G12C mutant, KRas G12D mutants, HRas wild type, Rac-1, and Rho-A were expressed as His-tagged proteins. In addition, the Guanosine nucleotide Exchange Factor (GEF) Sos protein (residues 556-1049) was expressed as a His-tagged protein. In cells, the guanine nucleotide exchange factor Sos protein promotes activation of Ras proteins by stimulating an exchange of GDP for GTP. The inclusion of Sos to the Ras GTP binding domain inhibition assay may be considered as an alternative representation of physiological cellular conditions for evaluating the inhibitory activity of some of the tested small molecules.
(§5) For the assay, all purified small GTPases proteins were diluted in Buffer-I or Buffer-II to a final concentration of 10-30 μg/mL. 200 μL of each diluted protein was added to a nickel-coated 96-well plate and incubated overnight at 4° C. Then the protein solution was discarded and 200 μL of Buffer-I or Buffer-II was added to each well in the presence of 1% DMSO. Compounds to be tested were added to the protein-coated wells at final concentration of 20 μM, and incubated for 3 hours at room temperature with and without […] of Sos added to the final hour of the incubation. When performing IC50 measurements a serial dilution of all tested concentrations was added. Then Cy3-GTP or Cy5-GTP was added to each well to a final concentration of 100 nM. The labeled GTP was incubated for 45 minutes at room temperature. Following GTP incubation, wells were washed 3× in Buffer-I or Buffer-II and 200 μL of Buffer-I or Buffer-II was added to each well. Following washes, the amount of bound labeled-GTP was measured using a SpectraMax M3 (Molecular Devices).

KRas wild type = tested on: KRas wild type; design: species or system human; conditions: 20 μM; for KRas wild type + SOS: % inh.: with SOS; for KRas wild type: % inh.: without SOS
Description: as §1, §2, §3, §4, §5

KRas G12C mutant = tested on: KRas G12C mutant; design: species or system human; conditions: 20 μM; for KRas G12C mutant + SOS: % inh.: with SOS; for KRas G12C mutant: % inh.: without SOS
Description: as §1, §2, §3, §4, §5

KRas G12D mutant = biological target: T1, KRas G12D mutant (Homo sapiens, UniProt P01116, G12D); conditions: 20 μM
T1 construct: fused on or other part: His tag, used for capture on nickel-coated plates
Description: as §1, §2, §3, §4, §5

[1] = with SOS, read-out: KRas G-12D mutant + SOS: % inh.
[2] = without SOS, read-out: KRas G12D mutant: % inh.

SMILES	KRas Q61H mutant + SOS: % inh. (KRas Q61H mutant)	KRas Q61H mutant: % inh. (KRas Q61H mutant)	KRas wild type + SOS: % inh. (KRas wild type)	KRas wild type: % inh. (KRas wild type)	KRas G12C mutant + SOS: % inh. (KRas G12C mutant)	KRas G12C mutant: % inh. (KRas G12C mutant)	inhibition at 20 µM (KRas G12D mutant; [1]) [%]	inhibition at 20 µM (KRas G12D mutant; [2]) [%]
Cc1cn(C)c(-c2nc(O)c3scc(-c4ccccn4)c3n2)n1 [drawing 807]	C (51-75% inhibition)	A (1-25% inhibition)	B (26-50% inhibition)	D (76-100% inhibition)	C (51-75% inhibition)	C (51-75% inhibition)	26 to 50	76 to 100
Cc1cnc(-c2nc(O)c3scc(-c4ccccn4)c3n2)n1C [drawing 808]	B (26-50% inhibition)	A (1-25% inhibition)	A (1-25% inhibition)	C (51-75% inhibition)	B (26-50% inhibition)	C (51-75% inhibition)	1 to 25	51 to 75
O=C(NC1CCC1)c1nc(-c2ccccn2)nc(O)c1O [drawing 809]	B (26-50% inhibition)	D (76-100% inhibition)	A (1-25% inhibition)	D (76-100% inhibition)	B (26-50% inhibition)	C (51-75% inhibition)	26 to 50	51 to 75
COCCN(C)C(=O)c1nc(-c2ccccn2)nc(O)c1O [drawing 810]	A (1-25% inhibition)	A (1-25% inhibition)	A (1-25% inhibition)	B (26-50% inhibition)	A (1-25% inhibition)	C (51-75% inhibition)	1 to 25	1 to 25

The next lines start with the values.

KRas Q61H mutant + SOS: % inh. (KRas Q61H mutant)	KRas Q61H mutant: % inh. (KRas Q61H mutant)	KRas wild type + SOS: % inh. (KRas wild type)	KRas wild type: % inh. (KRas wild type)	KRas G12C mutant + SOS: % inh. (KRas G12C mutant)	KRas G12C mutant: % inh. (KRas G12C mutant)	inhibition at 20 µM (KRas G12D mutant; [1]) [%]	inhibition at 20 µM (KRas G12D mutant; [2]) [%]	SMILES
B (26-50% inhibition)	C (51-75% inhibition)	A (1-25% inhibition)	D (76-100% inhibition)	B (26-50% inhibition)	D (76-100% inhibition)	1 to 25	51 to 75	CC(C)CNC(=O)c1nc(-c2ccccn2)nc(O)c1O [drawing 811]
B (26-50% inhibition)	C (51-75% inhibition)	A (1-25% inhibition)	D (76-100% inhibition)	B (26-50% inhibition)	D (76-100% inhibition)	1 to 25	51 to 75	O=C(NC1CCCC1)c1nc(-c2ccccn2)nc(O)c1O [drawing 812]
C (51-75% inhibition)	D (76-100% inhibition)	B (26-50% inhibition)	D (76-100% inhibition)	C (51-75% inhibition)	C (51-75% inhibition)	26 to 50	26 to 50	COc1c(O)nc(-c2ccccn2)nc1Oc1ccccc1 [drawing 813]
C (51-75% inhibition)	B (26-50% inhibition)	B (26-50% inhibition)	D (76-100% inhibition)	B (26-50% inhibition)	A (1-25% inhibition)	26 to 50	51 to 75	COCCc1ccc(Oc2nc(-c3ccccn3)nc(O)c2OC)cc1 [drawing 814]
C (51-75% inhibition)	D (76-100% inhibition)	B (26-50% inhibition)	D (76-100% inhibition)	C (51-75% inhibition)	D (76-100% inhibition)	26 to 50	76 to 100	COc1ccc(Oc2nc(-c3ccccn3)nc(O)c2OC)cc1 [drawing 815]
